{"source": "ChEMBL document CHEMBL5370570", "about": "“HIV-1 Integrase Inhibitor, Dihydroobionin B, and the Investigation of Its Extraordinary Specific Rotation” (J Nat Prod, 2023)", "key": {"Bipolaris oryzae": {"test_system": "Bipolaris oryzae", "test": "Antifungal activity against Bipolaris oryzae at 50 ug assessed as zone of inhibition incubated after 5 days at 25 degreeC by paper disk method", "assay_type": "functional", "settings": "for zone of inhibition at 50 µg/disc: 120 h, time 5 day, read-out: IZ"}, "[1]": {"target": "Human immunodeficiency virus type 1 integrase (Human immunodeficiency virus 1, UniProt Q7ZJM1)", "sequence (Q7ZJM1 whole entry)": "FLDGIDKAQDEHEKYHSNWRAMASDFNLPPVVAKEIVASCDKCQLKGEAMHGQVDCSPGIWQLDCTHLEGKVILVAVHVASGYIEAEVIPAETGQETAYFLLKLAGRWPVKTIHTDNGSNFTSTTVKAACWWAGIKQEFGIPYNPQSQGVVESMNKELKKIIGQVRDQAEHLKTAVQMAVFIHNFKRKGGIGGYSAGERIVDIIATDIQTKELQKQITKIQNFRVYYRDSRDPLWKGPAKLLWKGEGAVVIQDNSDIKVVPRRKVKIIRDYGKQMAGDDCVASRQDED", "test": "Inhibition of HIV-1 integrase expressed in HEK293T co-transfected with CS-II Luci vector incubated for 48 hrs by Bright-Glo luciferase assay", "assay_type": "cell-based"}, "[2]": {"test": "Cytotoxicity against human HEK293T cells assessed as reduction in cell viability incubated for 48 hrs by WST assay", "assay_type": "toxicity, cell-based, HEK-293T", "settings": "read-out: LC50"}}, "note": "Calls of active or inactive are those of the source. The rule behind the calls is not given here.", "data": [{"smiles": "CCCC/C=C/c1c(OC)cc(=O)oc1C", "values": [{"measurement": "zone of inhibition at 50 µg/disc", "setting": "Bipolaris oryzae", "value": 12, "unit": "mm"}, {"measurement": "IC50", "setting": "[1]", "value": 250, "unit": "µM"}]}, {"smiles": "CCCCCCC[C@H]1Cc2cc3c(c(O)c2CO1)C(=O)C(=O)C(OC)=C3", "values": [{"measurement": "CC50 at 48 h", "setting": "[2]", "value": "> 250", "unit": "µM"}, {"measurement": "inhibition zone (IZ)", "setting": "Bipolaris oryzae; dose 50.0 µg, time 5.0 day", "value": "inactive"}, {"measurement": "IC50", "setting": "[1]", "value": 0.44, "unit": "µM"}]}, {"smiles": "CCCCCCc1c(OC)cc(=O)oc1C", "values": [{"measurement": "zone of inhibition at 50 µg/disc", "setting": "Bipolaris oryzae", "value": 12, "unit": "mm"}, {"measurement": "IC50", "setting": "[1]", "value": 15, "unit": "µM"}]}, {"smiles": "CCCCCc1cc(O)c(C)c(O)c1C=O", "values": [{"measurement": "zone of inhibition at 50 µg/disc", "setting": "Bipolaris oryzae", "value": 12, "unit": "mm"}, {"measurement": "IC50", "setting": "[1]", "value": 13, "unit": "µM"}]}]}
